Experimental data from patent publication US9284272B2, “Inhibitors of histone methyltransferase G9a” (AbbVie Inc., priority 2014, dated 2016).

Each compound was assayed against T1, G9a (Homo sapiens, UniProt Q96KQ7) (assay: Inhibition of G9a, AlphaLISA assay). Details: not given.
T1 sequence (Q96KQ7 1-1210): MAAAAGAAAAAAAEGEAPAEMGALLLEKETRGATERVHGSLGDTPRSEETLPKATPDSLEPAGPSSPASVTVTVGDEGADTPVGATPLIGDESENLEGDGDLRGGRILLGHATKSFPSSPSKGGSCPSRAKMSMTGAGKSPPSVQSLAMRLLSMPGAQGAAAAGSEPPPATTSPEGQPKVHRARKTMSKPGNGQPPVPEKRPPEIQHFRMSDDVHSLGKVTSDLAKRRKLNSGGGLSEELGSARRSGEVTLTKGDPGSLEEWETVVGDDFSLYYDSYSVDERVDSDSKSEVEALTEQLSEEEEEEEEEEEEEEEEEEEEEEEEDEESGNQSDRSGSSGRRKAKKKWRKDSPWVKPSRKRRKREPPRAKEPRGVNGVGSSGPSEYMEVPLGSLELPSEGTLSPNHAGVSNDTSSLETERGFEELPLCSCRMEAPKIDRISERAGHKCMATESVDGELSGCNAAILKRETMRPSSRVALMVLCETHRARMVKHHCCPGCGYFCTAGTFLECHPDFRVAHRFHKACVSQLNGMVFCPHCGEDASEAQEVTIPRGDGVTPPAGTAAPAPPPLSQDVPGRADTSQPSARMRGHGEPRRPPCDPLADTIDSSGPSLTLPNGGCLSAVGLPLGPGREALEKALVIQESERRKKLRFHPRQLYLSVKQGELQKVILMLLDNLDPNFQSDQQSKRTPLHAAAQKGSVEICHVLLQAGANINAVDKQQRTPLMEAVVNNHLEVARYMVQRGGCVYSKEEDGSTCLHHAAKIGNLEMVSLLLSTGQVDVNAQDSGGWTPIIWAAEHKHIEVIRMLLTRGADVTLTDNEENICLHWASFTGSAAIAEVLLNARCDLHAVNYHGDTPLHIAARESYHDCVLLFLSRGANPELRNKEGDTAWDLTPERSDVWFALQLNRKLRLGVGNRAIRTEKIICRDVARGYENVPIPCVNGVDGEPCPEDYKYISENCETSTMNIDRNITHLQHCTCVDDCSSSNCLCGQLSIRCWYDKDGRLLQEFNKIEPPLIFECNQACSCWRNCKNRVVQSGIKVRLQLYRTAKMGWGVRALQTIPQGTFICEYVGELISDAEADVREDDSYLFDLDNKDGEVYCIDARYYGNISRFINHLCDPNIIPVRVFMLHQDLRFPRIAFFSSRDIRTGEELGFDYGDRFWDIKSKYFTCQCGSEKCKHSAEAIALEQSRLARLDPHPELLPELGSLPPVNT
Assay type: biochemical
Procedure: The G9a assay was conducted in an Alphascreen format to detect methyl modification of a histone H3 peptide by the histone methyl transferase activity of the G9a enzyme.
For the assay, the following buffer was used to set up reactions: 50 mM Tris-HCl pH 7.5, 50 mM NaCl, 1 mM DTT, 0.01% Triton X-100, and 0.005% BSA, with the DTT and BSA added fresh prior to starting the reactions.
IC50 values were calculated by fitting the inhibition percent to the concentration of inhibitor [I] in the assay in equation 1 below, to solve for the IC50.

In order of falling IC50:
1. COc1ccc2c(c1)C1(CCC1)C(N)=N2 [Example 5, 5′-methoxyspiro[cyclobutane-1,3′-indol]-2′-amine]  18200 nM
2. COc1cc2c(cc1OC)N=C(N)C2 [Example 6, 5,6-dimethoxy-3H-indol-2-amine]  14400 nM
3. COc1cc2c(cc1OCCCC1CCCC1)N=C(N)C2(C)C [Example 17, 6-(3-cyclopentylpropoxy)-5-methoxy-3,3-dimethyl-3H-indol-2-amine]  12900 nM
4. COc1cc2c(cc1OC)C1(CCCCC1)C(N)=N2 [Example 2, 5′,6′-dimethoxyspiro[cyclohexane-1,3′-indol]-2′-amine]  3540 nM
5. COc1cc2c(cc1OC)C1(CCCC1)C(N)=N2 [Example 4, 5′,6′-dimethoxyspiro[cyclopentane-1,3′-indol]-2′-amine]  2460 nM
6. COc1cc2c(cc1OCCCN1CC(F)(F)C1)N=C(N)C21CCC1 [Example 14, 6′-(3-(3,3-difluoroazetidin-1-yl)propoxy)-5′-methoxyspiro[cyclobutane-1,3′-indol]-2′-amine]  1340 nM
7. COc1cc2c(cc1OCCCn1ccnc1)N=C(N)C21CCC1 [Example 11, 6′-(3-(1H-imidazol-1-yl)propoxy)-5′-methoxyspiro[cyclobutane-1,3′-indol]-2′-amine]  754 nM
8. COc1cc2c(cc1OC)C1(CCC1)C(N)=N2 [Example 3, 5′,6′-dimethoxyspiro[cyclobutane-1,3′-indol]-2′-amine]  153 nM
9. COc1cc2c(cc1OCCC1CCCN1C)N=C(N)C21CCC1 (stereo not shown) [Example 10, 5′-methoxy-6′-(2-(1-methylpyrrolidin-2-yl)ethoxy)spiro[cyclobutane-1,3′-indol]-2′-amine]  150 nM
10. COc1cc2c(cc1OCCCN1CC[C@@H](F)C1)N=C(N)C21CCC1 [Example 15, (R)-6′-(3-(3-fluoropyrrolidin-1-yl)propoxy)-5′-methoxyspiro[cyclobutane-1,3′-indol]-2′-amine]  18 nM
11. COc1cc2c(cc1OCC1CCCN1C)N=C(N)C21CCC1 (stereo not shown) [Example 9, 5′-methoxy-6′-((1-methylpyrrolidin-2-yl)methoxy)spiro[cyclobutane-1,3′-indol]-2′-amine]  5 nM
12. COc1cc2c(cc1OCCCN1CC(F)C1)N=C(N)C21CCC1 [Example 13, 6′-(3-(3-fluoroazetidin-1-yl)propoxy)-5′-methoxyspiro[cyclobutane-1,3′-indol]-2′-amine]  4.8 nM
13. COc1cc2c(cc1OCCCN1CC[C@H](F)C1)N=C(N)C21CCC1 [Example 12, (S)-6′-(3-(3-fluoropyrrolidin-1-yl)propoxy)-5′-methoxyspiro[cyclobutane-1,3′-indol]-2′-amine]  3.7 nM
14. COc1cc2c(cc1OCC1CCN(C)C1)N=C(N)C21CCC1 (stereo not shown) [Example 8, 5′-methoxy-6′-((1-methylpyrrolidin-3-yl)methoxy)spiro[cyclobutane-1,3′-indol]-2′-amine]  1 nM
15. COc1cc2c(cc1OCCCN1CCCC1)N=C(N)C2(C)C [Example 16, 5-methoxy-3,3-dimethyl-6-(3-(pyrrolidin-1-yl)propoxy)-3H-indol-2-amine]  0.9 nM

The compounds below were run on MV4;11 cells (assay: Differentiation, proliferation, viability and cell cycle of MV4;11 cells, 14 days). Details: MV4;11 cells, 0-3 μM.
Assay type: cell-based, human
Source text: MV4;11 cells are a human acute myelocytic leukemia (AML) cell line derived from a human with leukemia.

With `CC1=C(/C=C/C(C)=C/C=C/C(C)=C/C(=O)O)C(C)(C)CCC1` [ATRA, all trans retinoic acid, reference compound] the “cell cycle analysis (PI staining)” value was “more cells were observed to be in the subG1/G0 phase”.

`CC1=C(/C=C/C(C)=C/C=C/C(C)=C/C(=O)O)C(C)(C)CCC1` [ATRA, all trans retinoic acid, reference compound] was tested, and the “expression of marker CD11b by flow cytometry (differentiation)” value was “more cells in the population expressed the marker CD11b”.

Same assay, conditions: MV4;11 cells, compared with Example 7

With `CC1=C(/C=C/C(C)=C/C=C/C(C)=C/C(=O)O)C(C)(C)CCC1` [ATRA, all trans retinoic acid, reference compound] the “effect on cell viability” value was “less of an effect on cell viability”.

Same assay, conditions: MV4;11 cells, increasing concentration

For `CC1=C(/C=C/C(C)=C/C=C/C(C)=C/C(=O)O)C(C)(C)CCC1` [ATRA, all trans retinoic acid, reference compound], the “growth inhibition and expression of CD11b” value was “lead to growth inhibition and expression of CD11b”.
